Experimental data: ChEMBL document CHEMBL1201862, “PubChem BioAssay data set” (2004)
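These data come from cells grown in 96-well plates and exposed to compound for 48 hours at five concentrations. The concentration for 50% growth inhibition is given as GI50.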 Active and inactive are the calls of the source. No stated cut-off is given here; in the data, active = GI50 up to about 1.1 µM and inactive = higher.

Columns and labels:
Assay in all cases: inhibition of tumour cell growth, NCI panel, 48 h
786-0 = tested on: 786-0
A498 = tested on: A498
A549 = tested on: A549
ACHN = tested on: ACHN
BT-549 = tested on: BT-549
CAKI-1 = tested on: CAKI-1
CCRF-CEM = tested on: CCRF-CEM
COLO 205 = tested on: COLO 205
DU-145 = tested on: DU-145
EKVX = tested on: EKVX
HCC 2998 = tested on: HCC 2998
HCT-116 = tested on: HCT-116
HCT-15 = tested on: HCT-15
HOP-62 = tested on: HOP-62
HOP-92 = tested on: HOP-92
HT-29 = tested on: HT-29
Hs-578T = tested on: Hs-578T
IGROV-1 = tested on: IGROV-1
KM12 = tested on: KM12
M14 = tested on: M14
MCF7 = tested on: MCF7
MDA-MB-231 = tested on: MDA-MB-231
MDA-MB-435 = tested on: MDA-MB-435
MDA-N = tested on: MDA-N
MOLT-4 = tested on: MOLT-4
Malme-3M = tested on: Malme-3M
NCI-H226 = tested on: NCI-H226
NCI-H23 = tested on: NCI-H23
NCI-H522 = tested on: NCI-H522
NCI/ADR-RES = tested on: NCI/ADR-RES
OVCAR-3 = tested on: OVCAR-3
OVCAR-4 = tested on: OVCAR-4
OVCAR-5 = tested on: OVCAR-5
OVCAR-8 = tested on: OVCAR-8
PC-3 = tested on: PC-3
RPMI-8226 = tested on: RPMI-8226
RXF 393 = tested on: RXF 393
SF-268 = tested on: SF-268
SF-295 = tested on: SF-295
SF-539 = tested on: SF-539
SK-MEL-28 = tested on: SK-MEL-28
SK-MEL-2 = tested on: SK-MEL-2
SK-MEL-5 = tested on: SK-MEL-5
SK-OV-3 = tested on: SK-OV-3
SN12C = tested on: SN12C
SNB-19 = tested on: SNB-19
SNB-75 = tested on: SNB-75
SW-620 = tested on: SW-620
T47D = tested on: T47D
TK-10 = tested on: TK-10
U-251 = tested on: U-251
UACC-257 = tested on: UACC-257
UACC-62 = tested on: UACC-62
UO-31 = tested on: UO-31

What does the source list for `Nc1nc(N)c2ncn(Cc3ccccc3)c2n1`?
GI50 (786-0): > 100 µM (inactive); GI50 (A498): > 100 µM (inactive); GI50 (A549): > 100 µM (inactive); GI50 (ACHN): > 100 µM (inactive); GI50 (BT-549): > 100 µM (inactive); GI50 (CAKI-1): > 100 µM (inactive); GI50 (CCRF-CEM): > 100 µM (inactive); GI50 (COLO 205): > 100 µM (inactive); GI50 (DU-145): > 100 µM (inactive); GI50 (EKVX): 21.8 µM (inactive); GI50 (HCC 2998): > 100 µM (inactive); GI50 (HCT-116): > 100 µM (inactive); GI50 (HCT-15): > 100 µM; GI50 (HOP-62): > 100 µM (inactive); GI50 (HOP-92): > 100 µM (inactive); GI50 (HT-29): > 100 µM (inactive); GI50 (Hs-578T): > 100 µM (inactive); GI50 (IGROV-1): > 100 µM (inactive); GI50 (KM12): > 100 µM (inactive); GI50 (M14): > 100 µM (inactive); GI50 (MCF7): > 100 µM (inactive); GI50 (MDA-MB-231): > 100 µM (inactive); GI50 (MDA-MB-435): > 100 µM (inactive); GI50 (MDA-N): > 100 µM (inactive); GI50 (MOLT-4): > 100 µM (inactive); GI50 (Malme-3M): > 100 µM (inactive); GI50 (NCI-H226): > 100 µM (inactive); GI50 (NCI-H23): > 100 µM (inactive); GI50 (NCI-H522): > 100 µM (inactive); GI50 (NCI/ADR-RES): > 100 µM (inactive); GI50 (OVCAR-3): > 100 µM (inactive); GI50 (OVCAR-4): > 100 µM (inactive); GI50 (OVCAR-5): > 100 µM (inactive); GI50 (OVCAR-8): > 100 µM (inactive); GI50 (PC-3): > 100 µM (inactive); GI50 (RPMI-8226): > 100 µM (inactive); GI50 (RXF 393): > 100 µM (inactive); GI50 (SF-268): > 100 µM (inactive); GI50 (SF-295): > 100 µM (inactive); GI50 (SF-539): > 100 µM (inactive); GI50 (SK-MEL-28): > 100 µM (inactive); GI50 (SK-MEL-2): > 100 µM (inactive); GI50 (SK-MEL-5): > 100 µM (inactive); GI50 (SK-OV-3): > 100 µM (inactive); GI50 (SN12C): > 100 µM (inactive); GI50 (SNB-19): > 100 µM (inactive); GI50 (SNB-75): 0.0295 µM (active); GI50 (SW-620): > 100 µM (inactive); GI50 (T47D): > 100 µM (inactive); GI50 (TK-10): > 100 µM (inactive); GI50 (U-251): > 100 µM (inactive); GI50 (UACC-257): > 100 µM (inactive); GI50 (UACC-62): > 100 µM (inactive); GI50 (UO-31): > 100 µM (inactive)
